For experiment [1], the target named is T1, β-lactoglobulin (BLG) (Bos taurus, UniProt P02754).
T1 construct: purchased Sigma–Aldrich Co. (St. Louis, MO, USA)
T1 sequence (P02754 17-178): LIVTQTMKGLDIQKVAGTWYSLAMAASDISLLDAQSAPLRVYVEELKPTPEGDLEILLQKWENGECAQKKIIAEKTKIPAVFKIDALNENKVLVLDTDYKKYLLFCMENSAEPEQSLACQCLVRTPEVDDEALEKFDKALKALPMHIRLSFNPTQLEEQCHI
Briefly: Intrinsic fluorescence quenching of BLG by Bai/Chr (Stern–Volmer and double logarithmic equations). It is filed as binding. The note with it: for Ksv (Stern–Volmer quenching constant) / Kd: pH 6.8; for BLG fluorescence quenching: after 10 times titration, c(BLG) = 20 µM. The protocol: Intrinsic fluorescence spectroscopic test was measured on a F–7000 spectrophotometer (Hitachi, Japan) equipped with temperature controller according to the method described in the previous study. Briefly, 3 mL solution of BLG (20.0 µM) was titrated by continuously adding different amounts of Bai or Chr (0–20.0 µM). The fluorescence spectra were recorded at different temperatures (298 K, 304 K, and 310 K) with the excitation wavelength of 280 nm and the excitation and emission slit set at 2.5 nm. Moreover, synchronous fluorescence spectra were conducted by setting the wavelength intervals (λem–λex) at 15 nm and 60 nm, respectively. The 3D fluorescence spectra (molar ratios of BLG to Bai/Chr were 1:0 and 1:1) were recorded at excitation and emission wavelength range of 200−600 nm. All the fluorescence values were corrected to eliminate the internal filtering effect according to the previous method, and were used to evaluate the quenching mechanism of Bai/Chr binding to BLG by using the following equation [21]:(1) F0/F=1+Kqτ0[Q]=1+KSV[Q] where F and F0 are the fluorescence intensities of fluorophore with and without quencher; Ksv denotes the Stern–Volmer quenching constant; Kq is the quenching rate constant (Kq = Ksv/τ0), and τ0 is the average lifetime of the biomolecule in the absence of a quencher (τ0 = 10^−8 s); [Q] represents the experimental concentration of Bai/Chr.
For static fluorescence quenching mechanism, the binding constant (Ka) and the number of binding sites (n) could be determined by the following equation [22]:(2) logF0−F/F=nlogKa−nlog1/[Qt]−(F0−F)[Pt]/F0 where [Qt] and [Pt] are the concentrations of Bai/Chr and BLG, respectively.

Experiment [2] concerns the target T1, β-lactoglobulin (BLG). Put plainly: Emulsifying ability and emulsifying stability of BLG. To be noted: for effect on emulsifying stability (ES) of BLG: BLG to Bai/Chr 40:1 to 10:1; for effect on emulsifying ability (EA) of BLG: with the increase of Bai or Chr concentration (BLG to Bai/Chr 40:1 to 10:1). The protocol:
Emulsifying ability (EA) and emulsifying stability (ES) were investigated by the method of Xiong et al. with slight modification. BLG solution (1 mg mL^−1) was added to Bai/Chr to form the solutions with different ratios of BLG to Bai/Chr (40:1, 30:1, 20:1, 10:1), and then soybean oil was added to form BLG solution containing 10% (v/v) oil. The emulsion was fully dispersed for 2 min at a rate of 7000 r min^−1 and repeated for three times. At 0 and 10 min, 30 µL of emulsion was extracted from the bottom of the sample and immediately added to 3 mL of 0.1% SDS solution. The absorbance of the sample was measured at 500 nm and recorded as A0 and A10, respectively. The EA (m^2 g^−1) and ES (min) were calculated according to the following equations:(11) EA (m^2 g^−1)=2×2.303/c×Φ×L×10^4×A0×D (12) ES (min)=A0/A0−A10×10 where c is the weight of the BLG per unit volume (g mL^−1), Φ is the volume fraction of the oil phase, L is the length of light path, and D is the dilution factor, D = 100.

For experiment [3], the target named is T1, β-lactoglobulin (BLG). Briefly: CD spectra, secondary structure contents of BLG. The protocol:
The CD spectra in the range of 200–250 nm were obtained from a CD spectrometer (MOS 450, Bio–Logic, Claix, France) equipped with 1.0 mm path length cuvette under the constant nitrogen flush. The solutions were prepared with molar ratios of Bai or Chr to BLG of 0:1, 1:1, and 2:1, respectively. The contents of secondary structure of BLG were determined based on our previously reported study.

[4] abbreviates: general statement for the three temperatures.
[5] abbreviates: molar ratio of Bai/Chr to BLG 1:1.
[6] abbreviates: molar ratio of Bai/Chr to BLG 2:1.
Setting [7] is: molar ratio of Bai/Chr to BLG 2:1, listed as Bai–BLG.
[8] abbreviates: molar ratio of Bai/Chr to BLG 2:1, listed as Chr–BLG.

Structures are written as SMILES. Several values for one entry are separate records, joined by “and”; a condition that tells them apart may be missing. Equal values may be shown once. Read-outs that look alike come from different tables or passages of the source. Marks after values point to notes of the source that are not given here.

Regarding `O=c1cc(-c2ccccc2)oc2cc(O)c(O)c(O)c12` [Bai, baicalein], the “n (number of binding sites)” value is 1.03 ± 0.03 on β-lactoglobulin (BLG) [1] (T = 298 K), 1.23 ± 0.02 at β-lactoglobulin (BLG) [1] (T = 304 K), 1.31 ± 0.03 at β-lactoglobulin (BLG) [1] (T = 310 K) and “approximately 1” on β-lactoglobulin (BLG) [1] (setting [4]). Besides, the “Ksv (Stern–Volmer quenching constant)” value is recorded as 5.75 ± 0.01 ^a ×10^4 L mol^−1 on β-lactoglobulin (BLG) [1] (T = 298 K), 4.76 ± 0.03 ^b ×10^4 L mol^−1 at β-lactoglobulin (BLG) [1] (T = 304 K) and 4.47 ± 0.06 ^c ×10^4 L mol^−1 on β-lactoglobulin (BLG) [1] (T = 310 K). In addition, the Kd is 3.6 µM at β-lactoglobulin (BLG) [1] (T = 298 K, read-out: Ka (binding constant) (converted)); 3.75 µM on β-lactoglobulin (BLG) [1] (T = 304 K, read-out: Ka (binding constant) (converted)); 3.92 µM at β-lactoglobulin (BLG) [1] (T = 310 K, read-out: Ka (binding constant) (converted)). The BLG fluorescence quenching on β-lactoglobulin (BLG) [1] (298 K) amounted to 63.2%. For the same compound, the “effect on emulsifying stability (ES) of BLG” value on β-lactoglobulin (BLG) [2] is “promoted the enhancement of ES”. For the same compound, the “effect on emulsifying ability (EA) of BLG” value at β-lactoglobulin (BLG) [2] is recorded as “slightly improved”. Besides, the “Random Coil content of BLG” value was 26.47 ± 0.41 ^b % on β-lactoglobulin (BLG) [3] (setting [5]) and 25.26 ± 033 ^c % at β-lactoglobulin (BLG) [3] (setting [6]). Further, the “α-Helix content of BLG” value was 14.12 ± 0.70 ^c % at β-lactoglobulin (BLG) [3] (setting [5]); 15.85% and 15.85 ± 0.93 ^b % at β-lactoglobulin (BLG) [3] (setting [7]). In addition, the “β-Sheet content of BLG” value is 36.25 ± 0.25 ^b % at β-lactoglobulin (BLG) [3] (setting [5]); 34.12% and 34.12 ± 0.34 ^d % on β-lactoglobulin (BLG) [3] (setting [7]). The “β-Turn content of BLG” value on β-lactoglobulin (BLG) [3] (setting [5]) was 23.16 ± 0.12 ^a %; on β-lactoglobulin (BLG) [3] (setting [6]), 24.77 ± 0.54 ^b %.

With `O=c1cc(-c2ccccc2)oc2cc(O)cc(O)c12` [Chr, chrysin], the “Ka (binding constant)” value on β-lactoglobulin (BLG) [1] (298 K) was 214000 L/mol. Moreover, the Kd at β-lactoglobulin (BLG) [1] (Ka (binding constant), T = 298 K) was 4.67 µM; at β-lactoglobulin (BLG) [1] (Ka (binding constant), T = 304 K), 4.81 µM; on β-lactoglobulin (BLG) [1] (Ka (binding constant), T = 310 K), 5.13 µM. The “n (number of binding sites)” value was 1.45 ± 0.01 at β-lactoglobulin (BLG) [1] (T = 298 K), 1.01 ± 0.02 at β-lactoglobulin (BLG) [1] (T = 304 K), 1.29 ± 0.01 on β-lactoglobulin (BLG) [1] (T = 310 K) and “approximately 1” at β-lactoglobulin (BLG) [1] (setting [4]). Also, the “Ksv (Stern–Volmer quenching constant)” value on β-lactoglobulin (BLG) [1] (T = 298 K) is recorded as 3.10 ± 0.04 ^d ×10^4 L mol^−1; at β-lactoglobulin (BLG) [1] (T = 304 K) it was 2.94 ± 0.06 ^e ×10^4 L mol^−1; on β-lactoglobulin (BLG) [1] (T = 310 K), 2.59 ± 0.04 ^f ×10^4 L mol^−1. This compound returned a BLG fluorescence quenching at β-lactoglobulin (BLG) [1] (298 K) of 59.0%. In addition, the “effect on emulsifying stability (ES) of BLG” value on β-lactoglobulin (BLG) [2] is given as “did the opposite”. For the same compound, the “effect on emulsifying ability (EA) of BLG” value on β-lactoglobulin (BLG) [2] is reported as “slightly improved”. Besides, the figures for the “Random Coil content of BLG” value at β-lactoglobulin (BLG) [3] (setting [5]) and at β-lactoglobulin (BLG) [3] (setting [6]) were 25.96 ± 0.34 ^bc % and 31.16 ± 0.10 ^a %, respectively. Moreover, the “α-Helix content of BLG” value on β-lactoglobulin (BLG) [3] (setting [5]) is 14.30 ± 0.47 ^c %; at β-lactoglobulin (BLG) [3] (setting [8]), 11.25% and 11.25 ± 0.58 ^d %. Moreover, the “β-Sheet content of BLG” value on β-lactoglobulin (BLG) [3] (setting [5]) is 35.18 ± 0.12 ^c %; on β-lactoglobulin (BLG) [3] (setting [8]) it was 33.06% and 33.06 ± 0.30 ^e %. The “β-Turn content of BLG” value was 24.56 ± 0.48 ^a % at β-lactoglobulin (BLG) [3] (setting [5]) and 24.53 ± 0.93 ^a % at β-lactoglobulin (BLG) [3] (setting [6]).

The values above are taken from PMC8774648, “Effects of Baicalein and Chrysin on the Structure and Functional Properties of β-Lactoglobulin” (Foods, 2022).
